This assay has as its target Dephosphorylated BTK (Homo sapiens, UniProt Q06187). The assay can be described thus: Test of activity inhibition against dephosphorylated BTK (mobility shift assay).

One may read the IC50 as the midpoint of a concentration-inhibition curve.

Chain of Dephosphorylated BTK (Q06187 whole entry): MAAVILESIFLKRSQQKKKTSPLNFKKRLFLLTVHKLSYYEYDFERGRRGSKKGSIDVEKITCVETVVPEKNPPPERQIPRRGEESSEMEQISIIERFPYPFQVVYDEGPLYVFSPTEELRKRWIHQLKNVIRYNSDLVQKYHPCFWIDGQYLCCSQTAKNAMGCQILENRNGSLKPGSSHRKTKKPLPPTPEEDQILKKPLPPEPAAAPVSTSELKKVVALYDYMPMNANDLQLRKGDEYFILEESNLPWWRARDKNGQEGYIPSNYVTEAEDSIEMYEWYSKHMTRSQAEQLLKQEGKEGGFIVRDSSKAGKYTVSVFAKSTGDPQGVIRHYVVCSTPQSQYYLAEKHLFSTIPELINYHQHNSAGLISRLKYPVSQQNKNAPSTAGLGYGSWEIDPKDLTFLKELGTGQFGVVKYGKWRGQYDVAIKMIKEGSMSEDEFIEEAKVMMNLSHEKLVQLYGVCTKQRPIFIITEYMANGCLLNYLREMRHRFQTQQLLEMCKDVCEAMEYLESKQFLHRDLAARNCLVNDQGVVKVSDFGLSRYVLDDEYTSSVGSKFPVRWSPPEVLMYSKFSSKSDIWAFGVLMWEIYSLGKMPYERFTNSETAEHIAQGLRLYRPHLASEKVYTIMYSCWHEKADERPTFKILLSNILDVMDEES
Description: Kinase activity was measured by a mobility shift assay (MSA) method using QuickScout Screening Assist (trademark) MSA (commercially available kit, manufactured by Carna Biosciences, Inc.). FITC-labeled SRCtide peptide supplied with the kit was used as a substrate of a kinase reaction.
IC50 value was calculated by regression analysis of the inhibition ratio and the test compound concentration (logarithm).
Dephosphorylated BTK was obtained by adding a A protein phosphatase (Code No. P0753S, manufactured by New England BioLabs Inc.) and MnCl2 to a biotinylated BTK protein BTN-BTK (manufactured by Carna Biosciences, Inc.) enzyme solution so as to adjust the concentrations to 10 U/μg and 2 mM, respectively, reacting the mixture at 4° C. overnight, removing the A protein phosphatase through anti-[sequence]-tag antibody agarose gel chromatography, and performing buffer exchange using 10DG Desalting Column.

Regarding `CC(C1CC1)n1cc(Nc2nc(N)nc(-c3cccc(N4CCc5cc(C6CC6)cc(F)c5C4=O)c3CO)n2)cn1` (centres unmarked) [Example 270, 2-[3-(4-Amino-6-{[1-(1-cyclopropylethyl)-1H-pyrazol-4-yl]amino}-1,3,5-triazin-2-yl)-2-(hydroxymethyl)phe-nyl]-6-cyclopropyl-8-fluoro-3,4-dihydroiso-quinolin-1(2H)-one], the IC50 came to 0.7 nM.
Turning to `COCCOc1ccc(Nc2nc(N)nc(-c3cccc(NC(=O)c4cc5c(s4)CCCC5)c3CO)n2)cc1OCCOC` [Example 131, N-[3-(4-Amino-6-{[3,4-bis(2-methoxyethoxy)phenyl]amino}-1,3,5-tri-azin-2-yl)-2-(hydroxy-methyl)phenyl]-4,5,6,7-tetrahydrobenzo[b] thiophene-2-carboxamide], the half-inhibitory concentration (IC50) was 0.4 nM.
As for `CCn1ccc(Nc2nc(N)nc(-c3cccc(N4CCc5cc(C6CC6)cc(F)c5C4=O)c3CO)n2)c1` [Example 231, 2-(3-{4-Amino-6-[(1-eth-yl-1H-pyrrol-3-yl)ami-no]-1,3,5-triazin-2-yl}-2-(hydroxymethyl)phenyl)-6-cyclopropyl-8-fluoro-3,4-dihydro-isoquinolin-1(2H)-one], the concentration for half-maximal inhibition (IC50) was determined as 1.7 nM.
With `CC(C)(C)c1ccc(C(=O)Nc2cccc(-c3nc(N)nc(Nc4ccc(OCCN5CCOCC5)cc4)n3)c2CO)cc1` [Example 78, N-[3-(4-Amino-6-{[4-(2-morpholinoethoxy)phe-nyl]amino}-1,3,5-tri-azin-2-yl)-2-(hydroxy-methyl)phenyl]-4-(tert-butyl)benzamide] the figure was 1.2 nM; with `CC(C)(C)OC(=O)Nc1ccc(Nc2nc(N)nc(-c3cccc(NC(=O)c4ccc(C(C)(C)C)cc4)c3CO)n2)cc1` [Example 120, tert-Butyl {4-[(4-amino-6-{3-[4-(tert-butyl)benzamido]-2-(hydroxymethyl)phe-nyl}-1,3,5-triazin-2-yl)amino]phenyl}carbamate], 5.5 nM; with `Nc1nc(Nc2ccc(O)cc2)nc(-c2cccc(NC(=O)c3cc4c(s3)CCCC4)c2CO)n1` [Example 136, N-(3-{4-Amino-6-[(4-hy-droxyphenyl)amino]-1,3,5-triazin-2-yl}-2-(hydroxymethyl)phenyl)-4,5,6,7-tetrahydro benzo[b]thiophene-2-carboxamide], 1.3 nM.
With `Cn1cc(Nc2nc(N)nc(-c3cccc(N4CCc5cc(C6CC6)cc(F)c5C4=O)c3CO)n2)cc1C(=O)O` [Example 224, 4-({4-Amino-6-[3-(6-cyclo-propyl-8-fluoro-1-oxo-3,4-dihydroisoquinolin-2(1H)-yl)-2-(hydroxy-methyl)phenyl]-1,3,5-triazin-2-yl}ami-no)-1-methyl-1H-pyr-role-2-carboxylic acid] the figure was 6.6 nM; with `CNC(=O)c1cc(Nc2nc(N)nc(-c3cccc(N4CCc5cc(C6CC6)cc(F)c5C4=O)c3CO)n2)cn1C` [Example 232, 4-({4-Amino-6-[3-(6-cyclo-propyl-8-fluoro-1-oxo-3,4-dihydroisoquinolin-2(1H)-yl)-2-(hy-droxymethyl)phenyl]-1,3,5-triazin-2-yl}ami-no)-N,1-dimethyl-1H-pyrrole-2-carboxamide], 0.7 nM.
Regarding `CN1CCN(C)C(c2ccc(Nc3nc(N)nc(-c4cccc(NC(=O)c5ccc(C(C)(C)C)cc5)c4CO)n3)cc2)C1=O` (centres unmarked) [Example 89, N-[3-(4-Amino-6-{[4-(1,4-dimethyl-3-oxo-piperazin-2-yl)phenyl]ami-no}-1,3,5-triazin-2-yl)-2-(hydroxymethyl)phenyl]-4-(tert-butyl) benzamide], the IC50 is 0.6 nM.
Regarding `Cc1c(NC(=O)c2ccc(C(C)(C)C)cc2)cccc1-c1nc(N)nc(Nc2ccc(N3CCCOCC3)cc2)n1` [Example 86, N-[3-(4-{[4-(1,4-Oxaze-pan-4-yl)phenyl]amino}-6-amino-1,3,5-tria-zin-2-yl)-2-methyl-phenyl]-4-(tert-butyl)benzamide], the IC50 amounted to 4 nM.
On to `Nc1nc(Nc2cc3n(c2)CCNC3=O)nc(-c2cccc(N3CCc4cc(C5CC5)cc(F)c4C3=O)c2CO)n1` [Example 267, 2-(3-{4-Amino-6-[(1-oxo-1,2,3,4-tetrahydro-pyrrolo[1,2-a]pyrazin-7-yl)amino]-1,3,5-tri-azin-2-yl}-2-(hydroxy-methyl)phenyl)-6-cyclo-propyl-8-fluoro-3,4-dihydroisoquinolin-1 (2H)-one], for which the 50% inhibitory concentration (IC50) came out at 1.5 nM.
As to `CC1(c2ccc(C(=O)Nc3cccc(-c4nc(N)nc(Nc5ccc(N6CCOCC6)cc5)n4)c3CO)cc2)CC1` [Example 192, N-(3-{4-Amino-6-[(4-morph-olinophenyl)amino]-1,3,5-triazin-2-yl}-2-(hydroxymethyl)phe-nyl)-4-(1-methylcyclo-propyl)benzamide], the IC50 is 0.7 nM.
With `Cn1cc(Nc2nc(N)nc(-c3cccc(N4CCc5cc(C6CC6)cc(F)c5C4=O)c3CO)n2)cc1C(N)=O` [Example 251, 4-({4-Amino-6-[3-(6-cyclo-propyl-8-fluoro-1-oxo-3,4-dihydroisoquino-lin-2(1H)-yl)-2-(hydroxy-methyl)phenyl]-1,3,5-triazin-2-yl}ami-no)-1-methyl-1H-pyr-role-2-carboxamide], the half-maximal inhibitory concentration (IC50) worked out at 0.4 nM.
With `CN1CCN(C)C(c2ccc(Nc3nc(N)nc(-c4cccc(N5Cc6cc(C(C)(C)C)sc6C5=O)c4CO)n3)cc2)C1=O` (centres unmarked) [Example 83, 5-[3-(4-Amino-6-{[4-(1,4-dimethyl-3-oxo-piperazin-2-yl)phenyl]ami-no}-1,3,5-triazin-2-yl)-2-(hydroxymethyl)phenyl]-2-(tert-butyl)-4H-thieno[2,3-c]pyr-rol-6(5H)-one], the IC50 came out at 1.8 nM.
On to `CC(C)(C)c1ccc(C(=O)Nc2cccc(-c3nc(N)nc(Nc4cccc(CO)c4)n3)c2CO)cc1` [Example 122, N-[3-(4-Amino-6-{[3-(hy-droxymethyl)phenyl]amino}-1,3,5-triazin-2-yl)-2-(hydroxymethyl)phenyl]-4-(tert-butyl)benzamide], for which the IC50 came out at 0.8 nM.
To `Nc1nc(Nc2ccc(N3CCOCC3)cc2)nc(-c2cccc(NC(=O)c3ccc4c(c3)CCC4)c2CO)n1` [Example 171, N-(3-{4-Amino-6-[(4-morpholinophenyl)amino]-1,3,5-triazin-2-yl}-2-(hydroxymethyl)phe-nyl)-2,3-dihydro-1H-indene-5-carboxamide] belongs 26 nM; to `COC(=O)c1cccc(Nc2nc(N)nc(-c3cccc(NC(=O)c4ccc(C(C)(C)C)cc4)c3CO)n2)c1` [Example 142, Methyl 3-[(4-amino-6-{3-[4-(tert-butyl)benzamido]-2-(hydroxymethyl)phe-nyl}-1,3,5-triazin-2-yl)amino]benzoate], 3.1 nM; to `Cc1c(NC(=O)c2ccc(C(C)(C)C)cc2)cccc1-c1ncnc(Nc2ccc(C3C(=O)N(C)CCN3C)cc2)n1` (centres unmarked) [Example 37, 4-(tert-Butyl)-N-[3-(4-{[4-(1,4-dimethyl-3-oxopiperazin-2-yl)phe-nyl]amino}-1,3,5-tri-azin-2-yl)-2-methyl-phenyl]benzamide], 2.7 nM.
With `CC(C)(C)c1ccc(C(=O)Nc2cccc(-c3nc(N)nc(Nc4ccc(N5CCCC(O)C5)cc4)n3)c2CO)cc1` (centres unmarked) [Example 125, N-[3-(4-Amino-6-{[4-(3-hydroxypiperidin-1-yl)phenyl]amino}-1,3,5-triazin-2-yl)-2-(hy-droxymethyl)phenyl]-4-(tert-butyl)benzamide], the half-maximal inhibitory concentration (IC50) was 0.8 nM.
With `CC(C)(C)c1ccc(C(=O)Nc2cccc(-c3nc(N)nc(Nc4ccc(S(N)(=O)=O)cc4)n3)c2CO)cc1` [Example 118, N-(3-{4-Amino-6-[(4-sulfa-moylphenyl)amino]-1,3,5-triazin-2-yl}-2-(hydroxymethyl)phe-nyl)-4-(tert-butyl)benz-amide] the figure was 0.8 nM.
Consider `Nc1nc(Nc2ccc(Cn3ccnc3)cc2)nc(-c2cccc(NC(=O)c3cc4c(s3)CCCC4)c2CO)n1` [Example 133, N-{3-[4-({4-[(1H-Imida-zol-1-yl)methyl]phe-nyl}amino)-6-amino-1,3,5-triazin-2-yl]-2-(hy-droxymethyl)phenyl}-4,5,6,7-tetrahydroben-zo[b]thiophene-2-carboxamide], for which the half-maximal inhibitory concentration (IC50) was 0.4 nM.
For `Cc1c(NC(=O)c2ccc(C(C)(C)C)cc2)cccc1-c1nc(N)nc(Nc2ccc(N3CCNCC3)cc2)n1` [Example 88, N-[3-(4-Amino-6-{[4-(piperazin-1-yl)phenyl]amino}-1,3,5-triazin-2-yl)-2-methylphenyl]-4-(tert-butyl)benza-mide], the 50% inhibitory concentration (IC50) was 1.8 nM.
Turning to `NC(=O)Cn1cc(Nc2nc(N)nc(-c3cccc(N4CCc5cc(C6CC6)cc(F)c5C4=O)c3CO)n2)cn1` [Example 266, 2-[4-({4-Amino-6-[3-(6-cyclopropyl-8-fluoro-1-oxo-3,4-dihydroiso-quinolin-2(1H)-yl)-2-(hydroxymethyl)phenyl]-1,3,5-triazin-2-yl}amino)-1H-pyrazol-1-yl]acetamide], the IC50 came out at 1.3 nM.
As for `Nc1nc(Nc2ccn(CCO)c2)nc(-c2cccc(N3CCc4cc(C5CC5)cc(F)c4C3=O)c2CO)n1` [Example 234, 2-[3-(4-Amino-6-{[1-(2-hydroxyethyl)-1H-pyrrol-3-yl]amino}-1,3,5-triazin-2-yl)-2-(hy-droxymethyl)phenyl]-6-cyclopropyl-8-fluoro-3,4-dihydroisoquinolin-1(2H)-one], the half-maximal inhibitory concentration (IC50) stood at 2.7 nM.
As to `Nc1nc(Nc2cnn([C@H]3CCOC3)c2)nc(-c2cccc(N3CCc4cc(C5CC5)cc(F)c4C3=O)c2CO)n1` [Example 235, (S)-2-[3-(4-Amino-6-{[1-(tetrahydrofuran-3-yl)-1H-pyrazol-4-yl]amino}-1,3,5-triazin-2-yl)-2-(hydroxymeth-yl)phenyl]-6-cyclopropyl-8-fluoro-3,4-dihydro-isoquinolin-1(2H)-one], the IC50 turned out to be 0.8 nM.
In the case of `CN(C)C(=O)c1cc(Nc2nc(N)nc(-c3cccc(N4CCc5cc(C6CC6)cc(F)c5C4=O)c3CO)n2)cn1C` [Example 272, 4-({4-Amino-6-[3-(6-cyclo-propyl-8-fluoro-1-oxo-3,4-dihydroisoquino-lin-2(1H)-yl)-2-(hydroxy-methyl)phenyl]-1,3,5-triazin-2-yl}ami-no)-N,N,1-trimethyl-1H-pyrrole-2-carboxamide], the IC50 is 1.1 nM.

The record behind these values is patent publication US20150011751A1, “NOVEL TRIAZINE DERIVATIVE” (CARNA BIOSCIENCES, INC., priority 2012, published 2015).
